Laboratory results taken from the NIST ThermoML archive (doi:10.1021/je800429j).
Numbers after ± are expanded uncertainties.

Details: 283.15 K; 101.33 kPa; Liquid; Pycnometric method

CCCCCC(=O)OCC(COC(=O)CCCCC)(COC(=O)CCCCC)COC(=O)CCCCC [pentaerythritol tetrahexanoate]
mass density: 1004.2 ± 1.6 kg/m3
